Measurements as given in patent US9695135B2, “Therapeutic catechols” (priority 2014, dated 2017).

Target: T1, PAN domain endonuclease (Influenza A virus, UniProt C3W5S0)
T1 construct: The PAN domain of 2009 pandemic H1N1 virus polymerase (residues 1-204) has now been crystallized
Test: Endonuclease inhibition assay (FRET, FAM/MGBNFQ TaqMan-like probe cleavage by PAN)
Type: biochemical, influenza A (2009 pandemic H1N1 virus)
Settings: 25 nM endonuclease, 50 nM probe, 37 degrees Celsius, fluorescence ex 488 nm / em 518 nm
From the text: A TaqMan-like oligonucleotide was used containing a 6-carboxy-fluorescein (FAM) fluorophore at the 5′-end followed by 19 nucleotides and a minor groove binding non-fluorescent quencher (MGBNFQ, Applied Biosystems) at the 3′-end. When excited by light at a wavelength of 488 nm, MGBNFQ quenches the fluorescence of FAM via fluorescence resonance energy transfer. If the endonuclease cleaves the oligonucleotide, the quencher is no longer coupled to the fluorophore, and therefore, FAM fluoresces. This assay can be performed in a high-throughput (e.g. 96 well plate) format. The assay can be used to evaluate the inhibitory characteristics of compounds that are found to bind PAN and to screen libraries of drug-like compounds. The assay uses the probe 6FAM-[…]-MGBNFQ (SEQ ID NO: 1)
The assay can be performed in a 40 μl reaction volume with 50 mM Tris pH 7.5, 50 mM NaCl, 1 mM MgSO4, 0.5 mM MnSO4, 1 mM DTT, 0.75 mM CHAPS, 50 nM probe, and 25 nM endonuclease.
The reaction mixture is set up as a master mix with the buffer, probe, and protein on ice. The inhibitor is then added to a maximum DMSO concentration of 2.5% (v/v) and serial dilutions are made on ice. Varioskan Fluorometer (Thermo Scientific), set to an excitation of 488 nm and emission of 518 nm, is used to measure the fluorescence of the samples at 37 degrees Celsius. Fluorescence is measured at various time points (5, 120, and 240 minutes) during the 37 degrees Celsius incubation. Activity/inhibition is calculated based on the change in fluorescence over time using Prism Graphpad non-linear regression analysis.

With `N#Cc1ccc(-c2cc(O)c(O)cc2-c2ccc(F)cc2)cc1` [Example 5, 4″-fluoro-4′,5′-dihydroxy-[1,1′:2′,1″-terphenyl]-4-carbonitrile] the IC50 was 290 nM.

In the case of `N#Cc1ccc(-c2cc(O)c(O)cc2-c2ccc(C#N)cc2)cc1` [Example 3, 4′,5′-dihydroxy-[1,1′:2′,1″-terphenyl]-4,4″-dicarbonitrile], the IC50 is reported as 395 nM.

`O=[N+]([O-])c1c(O)c(O)cc(-c2ccc(F)cc2)c1-c1ccc(F)cc1` [Example 2] gave an IC50 of 434 nM.

Work on `Oc1cc(-c2ccc(-c3nnn[nH]3)cc2)c(-c2ccc(-c3nnn[nH]3)cc2)cc1O` [Example 7] yielded an IC50 of 847 nM.

Work on `Oc1cc(-c2ccc(F)cc2)c(-c2ccc(F)cc2)cc1O` [Example 1] yielded an IC50 of 390 nM.

Molecule `Oc1cc(-c2ccc(F)cc2)c(-c2ccc(-c3nnn[nH]3)cc2)cc1O` [Example 6] has an IC50 of 425 nM.

`N#Cc1ccc(-c2cc(O)c(O)c([N+](=O)[O-])c2-c2ccc(C#N)cc2)cc1` [Example 4] gave an IC50 of 194 nM.
